{"source": "PubChem BioAssay AID192", "about": "(DTP/NCI, 2004)", "system": "BDF1 mice, B16 melanoma ip, median survival T/C", "assay": "NCI In Vivo Anticancer Drug Screen. Data for tumor model B16 Melanoma (intraperitoneal) in B6D2F1 (BDF1) mice", "conditions": "endpoint: median survival time, schedule: Q01DX009 (ip), higher = longer survival", "outline": "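Survival or tumor size is measured after treatment of tumor-bearing mice and normalised to the vehicle-treated control group.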", "key": {"[1]": {"conditions": "dose: 100.0 mg/kg/injection, vehicle: saline with Tween-80"}, "[2]": {"conditions": "dose: 200.0 mg/kg/injection, vehicle: saline with Tween-80"}, "[3]": {"conditions": "dose: 400.0 mg/kg/injection, vehicle: saline with Tween-80"}, "[4]": {"conditions": "dose: 25.0 mg/kg/injection, vehicle: Klucel (hydroxypropylcellulose) (HPC)"}, "[5]": {"conditions": "dose: 50.0 mg/kg/injection, vehicle: Klucel (hydroxypropylcellulose) (HPC)"}, "[6]": {"conditions": "dose: 25.0 mg/kg/injection, vehicle: saline with Tween-80"}, "[7]": {"conditions": "dose: 50.0 mg/kg/injection, vehicle: saline with Tween-80"}, "[8]": {"conditions": "dose: 100.0 mg/kg/injection, vehicle: Klucel (hydroxypropylcellulose) (HPC)"}, "[9]": {"conditions": "dose: 200.0 mg/kg/injection, vehicle: Klucel (hydroxypropylcellulose) (HPC)"}, "[10]": {"conditions": "dose: 400.0 mg/kg/injection, vehicle: Klucel (hydroxypropylcellulose) (HPC)"}, "[11]": {"conditions": "dose: 12.5 mg/kg/injection, vehicle: saline with Tween-80"}, "[12]": {"conditions": "dose: 25.0 mg/kg/injection, vehicle: saline"}, "[13]": {"conditions": "dose: 50.0 mg/kg/injection, vehicle: saline"}}, "note": "“And” between values parts separate entries of the source, which are not always exact repeats. Equal values may be shown once. Toxic doses and inconclusive results are not listed."}
{"smiles": "CCN(C(=O)Nc1ccc(Cl)cc1)c1ccccc1", "values": [{"measurement": "T/C", "setting": "[1]", "value": "94 % of control"}, {"measurement": "T/C", "setting": "[2]", "value": "97 % of control"}, {"measurement": "T/C", "setting": "[3]", "value": "92 % of control"}]}
{"smiles": "CCc1cnccc1C", "values": [{"measurement": "T/C", "setting": "[4]", "value": "100 % of control"}, {"measurement": "T/C", "setting": "[5]", "value": "112 % of control"}]}
{"smiles": "CCCc1c(C)[nH]c2ccc(C)cc12", "values": [{"measurement": "T/C", "setting": "[6]", "value": "101 % of control"}, {"measurement": "T/C", "setting": "[7]", "value": "105 % of control"}, {"measurement": "T/C", "setting": "[1]", "value": "87 % of control"}]}
{"smiles": "CCOc1ccccc1NC(=O)Nc1ccc(Cl)cc1", "values": [{"measurement": "T/C", "setting": "[8]", "value": "110 % of control"}, {"measurement": "T/C", "setting": "[9]", "value": "103 % of control"}, {"measurement": "T/C", "setting": "[10]", "value": "100 % of control"}]}
{"smiles": "C(C#CCN1CCOCC1)#CCN1CCOCC1", "values": [{"measurement": "T/C", "setting": "[11]", "value": "102 % of control and 103 % of control"}, {"measurement": "T/C", "setting": "[6]", "value": "97 % of control"}, {"measurement": "T/C", "setting": "[7]", "value": "93 % of control and 96 % of control"}, {"measurement": "T/C", "setting": "[1]", "value": "90 % of control and 97 % of control (2×)"}, {"measurement": "T/C", "setting": "[2]", "value": "90 % of control and 97 % of control (2×)"}, {"measurement": "T/C", "setting": "[3]", "value": "90 % of control and 97 % of control and 107 % of control"}]}
{"smiles": "CCCCCCCCCCCCCCCCC/C=C1\\CC(=O)OC1=O", "values": [{"measurement": "T/C", "setting": "[6]", "value": "97 % of control and 99 % of control"}, {"measurement": "T/C", "setting": "[7]", "value": "91 % of control and 105 % of control"}, {"measurement": "T/C", "setting": "[1]", "value": "92 % of control"}]}
{"smiles": "OC12CCC[N+]1(Cc1ccccc1)CCC2", "note": "(stereo unspecified)", "values": [{"measurement": "T/C", "setting": "dose: 12.5 mg/kg/injection, vehicle: saline", "value": "109 % of control"}, {"measurement": "T/C", "setting": "[12]", "value": "109 % of control"}, {"measurement": "T/C", "setting": "[13]", "value": "102 % of control"}]}
{"smiles": "O=COCCc1ccccc1", "values": [{"measurement": "T/C", "setting": "[8]", "value": "113 % of control"}, {"measurement": "T/C", "setting": "[9]", "value": "103 % of control"}, {"measurement": "T/C", "setting": "[10]", "value": "96 % of control"}]}
{"smiles": "NC(=O)Nc1n[nH]c(-c2ccccc2)n1", "values": [{"measurement": "T/C", "setting": "[12]", "value": "99 % of control"}, {"measurement": "T/C", "setting": "[13]", "value": "99 % of control"}, {"measurement": "T/C", "setting": "dose: 100.0 mg/kg/injection, vehicle: saline", "value": "86 % of control"}]}
{"smiles": "O=NNc1ccc(Cl)cn1", "values": [{"measurement": "T/C", "setting": "dose: 1.5 mg/kg/injection, vehicle: water", "value": "104 % of control"}, {"measurement": "T/C", "setting": "dose: 3.0 mg/kg/injection, vehicle: water", "value": "118 % of control"}, {"measurement": "T/C", "setting": "dose: 24.0 mg/kg/injection, vehicle: water", "value": "161 % of control"}]}
{"smiles": "CNC(=O)ON=C1CCC(CC2CCCCC2)CC1", "note": "(stereo unspecified)", "values": [{"measurement": "T/C", "setting": "[4]", "value": "93 % of control"}, {"measurement": "T/C", "setting": "[5]", "value": "100 % of control"}, {"measurement": "T/C", "setting": "[8]", "value": "103 % of control"}]}
{"smiles": "C=NCC#N", "values": [{"measurement": "T/C", "setting": "[1]", "value": "93 % of control"}, {"measurement": "T/C", "setting": "[2]", "value": "88 % of control"}, {"measurement": "T/C", "setting": "[3]", "value": "93 % of control"}]}
{"smiles": "Cc1cc(C(=O)NNCc2ccccc2)no1", "values": [{"measurement": "T/C", "setting": "dose: 3.12 mg/kg/injection, vehicle: Klucel (hydroxypropylcellulose) (HPC)", "value": "88 % of control and 98 % of control"}, {"measurement": "T/C", "setting": "dose: 6.25 mg/kg/injection, vehicle: Klucel (hydroxypropylcellulose) (HPC)", "value": "88 % of control and 98 % of control"}, {"measurement": "T/C", "setting": "dose: 12.5 mg/kg/injection, vehicle: Klucel (hydroxypropylcellulose) (HPC)", "value": "99 % of control"}, {"measurement": "T/C", "setting": "[4]", "value": "90 % of control and 92 % of control and 102 % of control"}, {"measurement": "T/C", "setting": "[5]", "value": "90 % of control"}]}
{"smiles": "Cc1cccc(/C=N/OCCC(C)C)n1", "values": [{"measurement": "T/C", "setting": "[7]", "value": "107 % of control"}, {"measurement": "T/C", "setting": "[1]", "value": "95 % of control"}]}
{"smiles": "[Cu+2].[NH-]C(CC(=O)O)C(=O)O.[NH-]C(CC(=O)O)C(=O)O", "note": "(stereo unspecified)", "values": [{"measurement": "T/C", "setting": "dose: 4.68 mg/kg/injection, vehicle: saline", "value": "98 % of control"}, {"measurement": "T/C", "setting": "dose: 9.37 mg/kg/injection, vehicle: saline", "value": "101 % of control"}]}
{"smiles": "C#CC(C)(C)OCC(CCl)OC(N)=O", "note": "(stereo unspecified)", "values": [{"measurement": "T/C", "setting": "[11]", "value": "91 % of control"}, {"measurement": "T/C", "setting": "[6]", "value": "100 % of control"}, {"measurement": "T/C", "setting": "[7]", "value": "104 % of control"}, {"measurement": "T/C", "setting": "[1]", "value": "93 % of control"}, {"measurement": "T/C", "setting": "[2]", "value": "95 % of control"}]}
{"smiles": "CC(=O)c1ccccc1I", "values": [{"measurement": "T/C", "setting": "[4]", "value": "102 % of control and 113 % of control"}, {"measurement": "T/C", "setting": "[5]", "value": "105 % of control and 106 % of control"}, {"measurement": "T/C", "setting": "[8]", "value": "105 % of control and 106 % of control"}, {"measurement": "T/C", "setting": "[9]", "value": "102 % of control and 106 % of control"}]}
